Columns and labels:
Format in all cases: biochemical
HDAC1 enzyme = target: T1, HDAC1 enzyme (Homo sapiens, UniProt Q13547); test: HDAC1 enzyme inhibitory assay (HDAC-Glo I/II Assay kit); details: 1 μM test compound; wells without enzyme = 100% inhibition; read-out: HDAC1 inhibitory rate (%) (1 μM)
T1 construct: transducing full length HDAC1 and HDAC6 genes into Sf-9 insect cells; GST; purchased SignalChem; host or cells: Sf-9 insect cells
Experimental: (§1) HDAC1/6 Enzyme Inhibitory Assay
(§2) HDAC1 enzyme and HDAC6 enzyme each prepared by transducing full length HDAC1 and HDAC6 genes into Sf-9 insect cells and purifying by GST affinity column were purchased from SignalChem. Using these enzymes, HDAC1 and/or HDAC6 enzyme inhibitory activities of the compound of the present invention were evaluated. Enzymes were used after preserved at −70° C. HDAC1 or HDAC6 enzyme inhibitory activity of the compound of the present invention was measured using HDAC-Glo™ I/II Assay kit (Promega) according to the following experimental method. The test compound diluted with assay buffer (24 mM Tris-HCl (pH 7.5), 1 mM MgCl2, 0.35 mM KCl, 135 mM NaCl, 0.6 mM Glutathione, 0.01% Tween-20) was added to a 384-well plate by each 2 μL. Then, HDAC1 or HDAC6 enzyme solution diluted with assay buffer was added thereto by each 4 μL, and the plate was incubated at room temperature for 60 min. After incubated, HDAC substrate-Developer solution prepared according to Promega protocol attached to the assay kit was added to the 384-well plate by each 2 μL, and the enzyme reaction was started. After reacting at room temperature for 20 min, luminescence level was measured using plate reader Envision (PerkinElmer). The inhibitory activity of each compound was calculated as a relative activity value when luminescence level in wells without enzyme is considered as 100% inhibition.

HDAC6 enzyme = target: T2, HDAC6 enzyme (Homo sapiens, UniProt Q9UBN7); test: HDAC6 enzyme inhibitory assay (HDAC-Glo I/II Assay kit); details: 1 μM test compound; wells without enzyme = 100% inhibition; read-out: HDAC6 inhibitory rate (%) (1 μM)
T2 construct: transducing full length HDAC1 and HDAC6 genes into Sf-9 insect cells; GST; purchased SignalChem; host or cells: Sf-9 insect cells
T2 sequence (Q9UBN7 1-1215): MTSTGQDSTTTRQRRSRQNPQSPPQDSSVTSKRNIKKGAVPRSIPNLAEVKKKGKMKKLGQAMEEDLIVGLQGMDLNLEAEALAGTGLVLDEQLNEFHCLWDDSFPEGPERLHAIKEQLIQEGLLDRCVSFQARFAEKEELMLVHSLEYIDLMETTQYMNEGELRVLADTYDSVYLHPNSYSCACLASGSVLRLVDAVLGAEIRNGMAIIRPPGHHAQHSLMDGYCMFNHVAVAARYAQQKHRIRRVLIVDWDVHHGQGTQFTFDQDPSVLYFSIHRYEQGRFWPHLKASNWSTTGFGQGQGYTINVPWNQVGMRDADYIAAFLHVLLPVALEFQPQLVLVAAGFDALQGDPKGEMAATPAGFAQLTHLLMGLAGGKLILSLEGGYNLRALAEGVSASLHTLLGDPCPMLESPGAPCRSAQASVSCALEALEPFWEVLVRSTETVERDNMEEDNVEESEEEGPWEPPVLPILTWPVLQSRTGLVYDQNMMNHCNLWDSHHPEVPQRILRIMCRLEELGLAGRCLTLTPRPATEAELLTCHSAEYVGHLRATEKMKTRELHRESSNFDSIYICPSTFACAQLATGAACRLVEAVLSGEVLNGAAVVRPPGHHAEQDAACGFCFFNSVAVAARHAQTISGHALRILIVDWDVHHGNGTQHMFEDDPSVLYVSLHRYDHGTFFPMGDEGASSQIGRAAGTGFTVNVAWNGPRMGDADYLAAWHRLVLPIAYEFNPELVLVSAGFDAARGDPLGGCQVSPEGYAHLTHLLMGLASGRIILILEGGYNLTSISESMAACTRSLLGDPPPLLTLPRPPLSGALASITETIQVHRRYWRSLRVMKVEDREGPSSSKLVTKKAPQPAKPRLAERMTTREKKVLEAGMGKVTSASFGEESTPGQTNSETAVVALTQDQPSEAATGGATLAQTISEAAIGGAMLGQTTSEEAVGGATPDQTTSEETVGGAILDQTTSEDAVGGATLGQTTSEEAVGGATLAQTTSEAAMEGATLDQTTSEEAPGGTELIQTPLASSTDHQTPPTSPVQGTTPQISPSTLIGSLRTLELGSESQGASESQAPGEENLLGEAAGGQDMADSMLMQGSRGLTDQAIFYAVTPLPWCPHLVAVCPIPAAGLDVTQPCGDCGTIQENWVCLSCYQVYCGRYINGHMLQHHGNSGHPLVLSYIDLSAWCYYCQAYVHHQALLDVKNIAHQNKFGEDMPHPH
Experimental: as §1, §2

HDAC9 enzyme = target: T3, HDAC9 enzyme (Homo sapiens, UniProt Q9UKV0); test: HDAC9 enzyme inhibitory assay (HDAC-Glo class IIa); details: 1 μM test compound; wells without enzyme = 100% inhibition; read-out: HDAC9 inhibitory rate (%) (1 μM)
T3 construct: transducing full length HDAC9 gene into Sf-9 insect cells; made in house; host or cells: Sf-9 insect cells
T3 sequence (Q9UKV0 whole entry, species assumed): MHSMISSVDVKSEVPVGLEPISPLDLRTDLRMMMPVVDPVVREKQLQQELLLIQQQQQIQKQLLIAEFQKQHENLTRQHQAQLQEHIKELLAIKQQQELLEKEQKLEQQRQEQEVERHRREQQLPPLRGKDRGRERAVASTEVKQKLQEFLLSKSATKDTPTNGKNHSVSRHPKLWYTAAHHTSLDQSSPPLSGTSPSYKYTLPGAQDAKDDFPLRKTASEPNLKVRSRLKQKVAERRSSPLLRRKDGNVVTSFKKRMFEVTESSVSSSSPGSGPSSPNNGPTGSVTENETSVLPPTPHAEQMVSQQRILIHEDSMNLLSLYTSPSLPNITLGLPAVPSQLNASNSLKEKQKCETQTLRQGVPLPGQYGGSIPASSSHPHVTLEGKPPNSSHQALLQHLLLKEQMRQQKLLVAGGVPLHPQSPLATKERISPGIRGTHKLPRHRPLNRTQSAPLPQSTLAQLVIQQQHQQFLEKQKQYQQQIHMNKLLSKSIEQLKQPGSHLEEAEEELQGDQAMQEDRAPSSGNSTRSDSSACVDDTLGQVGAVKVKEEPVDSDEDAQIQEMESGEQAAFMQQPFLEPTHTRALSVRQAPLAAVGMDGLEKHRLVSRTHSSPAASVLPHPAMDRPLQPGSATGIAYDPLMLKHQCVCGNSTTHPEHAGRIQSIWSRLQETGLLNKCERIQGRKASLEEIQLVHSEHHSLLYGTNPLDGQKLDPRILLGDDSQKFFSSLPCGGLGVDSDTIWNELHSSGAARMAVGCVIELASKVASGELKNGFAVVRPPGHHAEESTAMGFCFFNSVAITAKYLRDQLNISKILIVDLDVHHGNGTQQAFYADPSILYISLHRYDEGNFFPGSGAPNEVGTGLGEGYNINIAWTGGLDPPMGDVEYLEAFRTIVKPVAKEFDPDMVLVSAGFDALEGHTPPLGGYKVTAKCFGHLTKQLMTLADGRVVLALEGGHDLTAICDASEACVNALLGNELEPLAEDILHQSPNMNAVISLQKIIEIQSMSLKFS
Experimental: HDAC9 Enzyme Inhibitory Assay
Enzyme was prepared by transducing full length HDAC9 gene into Sf-9 insect cells and purifying by Ni-NTA affinity column, and HDAC9 enzyme inhibitory activity was evaluated. Enzymes were used after preserved at −70° C. HDAC9 enzyme inhibitory activity of the test compound was measured using HDAC-Glo class IIa (Promega) according to the following experimental method. The test compound diluted with assay buffer (24 mM Tris-HCl (pH 7.5), 1 mM MgCl2, 0.35 mM KCl, 135 mM NaCl, 0.6 mM Glutathione, 0.01% Tween-20) was added to a 384-well plate by each 2 μL. Then, HDAC9 enzyme solution diluted with assay buffer was added thereto by each 2 μL, and the plate was incubated at room temperature for 60 min. After incubated, HDAC substrate-Developer solution prepared according to Promega protocol was added to the 384-well plate by each 4 μL, and the enzyme reaction was started. After reacting at room temperature for 20 min, luminescence level was measured using plate reader Envision (PerkinElmer). The inhibitory activity of each compound was calculated as a relative activity value when luminescence level in wells without enzyme is considered as 100% inhibition.

T1 sequence (Q13547 whole entry): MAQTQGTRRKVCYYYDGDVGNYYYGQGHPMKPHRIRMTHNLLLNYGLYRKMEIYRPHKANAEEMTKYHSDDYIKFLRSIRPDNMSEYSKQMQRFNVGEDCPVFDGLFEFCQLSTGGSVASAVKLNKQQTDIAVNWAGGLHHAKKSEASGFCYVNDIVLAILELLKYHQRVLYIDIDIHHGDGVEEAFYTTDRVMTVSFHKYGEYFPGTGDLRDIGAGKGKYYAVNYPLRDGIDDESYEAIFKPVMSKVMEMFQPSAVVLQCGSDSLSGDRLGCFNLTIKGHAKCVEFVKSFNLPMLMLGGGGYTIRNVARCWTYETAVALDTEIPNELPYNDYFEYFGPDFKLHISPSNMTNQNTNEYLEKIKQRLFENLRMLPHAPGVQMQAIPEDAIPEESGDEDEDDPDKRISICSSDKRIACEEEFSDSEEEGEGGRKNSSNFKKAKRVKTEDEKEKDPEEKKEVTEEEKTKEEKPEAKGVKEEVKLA

| SMILES | inhibition at 1 µM (HDAC1 enzyme) [%] | inhibition at 1 µM (HDAC6 enzyme) [%] | inhibition at 1 µM (HDAC9 enzyme) [%] |
| --- | --- | --- | --- |
| C[C@H](c1ccccc1)N1Cc2ncc(-c3noc(C(F)(F)F)n3)cc2C1=O [Example 39, 6-((1R)-1-phenylethyl)-3-(5-(trifluoromethyl)-1,2,4-oxadiazol-3-yl)-6,7-dihydro-5H-pyrrolo[3,4-b]pyridin-5-one] | 55 | 99 | 90 |
| C[C@@H](c1ccccc1)N1Cc2ncc(-c3noc(C(F)(F)F)n3)cc2C1=O [Example 40, 6-((1S)-1-phenylethyl)-3-(5-(trifluoromethyl)-1,2,4-oxadiazol-3-yl)-6,7-dihydro-5H-pyrrolo[3,4-b]pyridin-5-one] | 52 | 97 | 93 |

Source: US10357484B2, “Heterocyclic compound” (Takeda Pharmaceutical Company Limited, priority 2015, dated 2019)
